Earlier results, collected in US20210145863A1, “LUBRICATED SUBSTRATES COMPRISING LAMBDA-CARRAGEENAN” (priority 2018, published 2021).

System: HPV
Settings: in vitro (Buck, C. B., et al.)

Which “Activity against HPV” value does the source give for lambda-carrageenan here?
Its value is “active”.
